# Where two headings read alike, the source gives them in different places.
# Assays:
# small intestine (ileum) = assay: Rat in situ intestinal perfusion with mesenteric blood sampling
# [1] = Apparent solubility, shake flask method in simulated intestinal media; conditions: 37 °C, pH 6.5, 37 °C, mean ± SD (n = 3)
# Description: (§2) The apparent solubility (i.e., including both molecules freely dissolved in the aqueous phase and molecules solubilised in colloidal structures and lipid droplets [12]) of abiraterone and abiraterone acetate was determined in the different simulated fed state media (i.e., FeSSIF*, FeSSIF*-FM, FeSSIF*-FMT, FeSSIF*-FMTh, FeSSIF*-Th and FeSSIF*-E) using the shake flask method. Approximately 0.3 mg of compound was added to microcentrifuge tubes containing 0.3 mL of the abovementioned media and placed in a prewarmed shaking incubator (37 °C, 175 rpm; KS 4000 I control incubator from Ika (Staufen, Germany)) for 24 h. To the media containing lipid digestion products, 0.9 mg of compound was added instead of 0.3 mg. All solubility experiments were performed in triplicate. Afterwards, samples were centrifuged to separate the solid phase from the dissolved part (20.817 g, 30 min at 37 °C). […] To determine the solubility in the micellar layer, the top lipid layer was aspirated upon which the supernatant was diluted in MeOH:H2O (50:50 v/v) containing IS (abiraterone-d4 and abiraterone acetate-d4, final concentration 50 nM). To determine the solubility in the total sample, the entire supernatant was transferred into a new microcentrifuge tube and vortexed upon which the supernatant was diluted in MeOH:H2O (50:50 v/v) containing IS to fit the linear range.
# [2] = cited from earlier work
# [3] = 24 h, pH 6.5
# Description: as §2
# [4] = Passive permeation in the artificial membrane insert system (AMI-system)
# Description: (§3) To investigate the impact of TG and lipid digestion products (FFA, MG) on the passive permeation of abiraterone, transport experiments were performed in the AMI-system according to Berben et al. [13]. In short, a regenerated cellulose membrane (molecular weight cut-off 2 kDa) was mounted between two plastic rings resulting in a surface area of 4.91 cm^2. Membrane integrity was checked by water leakage. The AMI-system was placed in a six-well plate on a shaking incubator at 37 °C and 300 rpm. A 1:3 ratio was maintained between donor and acceptor volumes by applying 2 mL of TPGS-solution to the acceptor compartment and 665 µL of the donor solution of abiraterone in the media prepared as described above. The initial concentration of abiraterone depended on the medium to ensure donor concentrations below the solubility and sufficient permeation to quantify the permeated amount in the acceptor compartment: 10 μM in FaSSIF, 30 μM in FeSSIF*, FeSSIF*-Th and FeSSIF*-E, and 150 μM in FeSSIF*-FM, FeSSIF*-FMT and FeSSIF*-FMTh. Samples (100 µL) were taken from the acceptor compartment at 15, 30, 45, 60 and 120 min and diluted 1:1 in MeOH:H2O (50:50 v/v) containing IS. Subsequently, the withdrawn volumes were replaced by fresh TPGS-solution.
# (§4) The apparent permeability coefficient (Papp) was calculated from the cumulative amount of abiraterone appearing in the acceptor compartment according to Equation (1):(1) Papp=dQ/dt×1/A×Cdonor where dQ/dt is the amount of abiraterone appearing in the acceptor compartment over time, A represents the effective surface area available for transport, and Cdonor is the initial concentration in the donor compartment. Data are represented as mean ± standard deviation (SD).
# [5] = set-up: method as in PMID 25592324; conditions: FaSSIF, pH 6.5; cited from earlier work
# [6] = test system: esterase from porcine liver; assay: Enzymatic conversion of abiraterone acetate to abiraterone by porcine esterases; assay type: in vitro ADME; conditions: 80 IU/mL porcine esterases
# Description: (§1) The conversion of abiraterone acetate to abiraterone was studied in the abovementioned media using either 80 IU/mL esterase from porcine liver or 0.83 mg/mL porcine pancreatin. A total of 150 µM abiraterone acetate (DMSO stock solution) was added to 2 mL of the media in a 12-well plate and placed in a prewarmed shaking incubator (37 °C, 300 rpm; Thermostar, BMG Labtech, Offenburg, Germany). Samples were obtained in triplicate at predetermined time points and centrifuged immediately (20.817 g, 5 min). When lipids were present, drug concentrations were determined in both total (lipid + micellar) and micellar layer as described above.
# [7] = 1000 mg a day; cited from earlier work
# [8] = PAMPA
# Description: as §3, §4
# physchem = conditions: 37 °C, Apparent solubility, micellar
# Description: as §2
# porcine pancreatin = assay: Enzymatic conversion of abiraterone acetate to abiraterone by porcine pancreatin; assay type: in vitro ADME; conditions: porcine pancreatin 0.83 mg/mL (same with esterases), 150 μM
# Description: as §1
# [9] = abiraterone acetate suspension 0.5 mg/mL, 80 IU/mL esterases
# [10] = FeSSIF*-FM, FeSSIF*-FMT and FeSSIF*-FMTh
smiles,measurement,setting,value
C[C@]12CC[C@H](O)CC1=CC[C@@H]1[C@@H]2CC[C@]2(C)C(c3cccnc3)=CC[C@@H]12 [abiraterone],Supersaturation in the perfusate,"small intestine (ileum); FaSSIF and FeSSIF*, entire course of the experiment",apparent supersaturation
same,Supersaturation in the perfusate,"small intestine (ileum); FeSSIF*-FM, FeSSIF*-FMT, FeSSIF*-FMTh",No supersaturation was observed
same,Absorptive flux in media with lipid digestion products,"small intestine (ileum); FeSSIF*-FM, FeSSIF*-FMT, FeSSIF*-FMTh, abiraterone acetate suspension 0.5 mg/mL, 80 IU/mL esterases",comparable to the flux in FaSSIF
same,"Abiraterone AUC0–60min in the perfusate, FeSSIF* compared to FaSSIF",small intestine (ileum); [9],much higher
same,"Abiraterone flux towards the mesenteric vein, FeSSIF* compared to FaSSIF",small intestine (ileum); [9],increased
same,Absorptive flux in FeSSIF*-E and FeSSIF*-Th compared to FaSSIF,small intestine (ileum); [9],increased
same,Absorptive flux in FeSSIF*-Ed compared to FaSSIF and FeSSIF*-FMT,"small intestine (ileum); ongoing lipolysis, pancreatin 0.83 mg/mL, abiraterone acetate suspension 0.5 mg/mL",substantially higher
same,solubility at 24 h,"[1]; FeSSIF*, micellar, pH 6.5, fessif, thermodynamic from solid",32.7 µM
same,solubility at 24 h,"[1]; FeSSIF*-E, micellar layer of the supernatant, pH 6.5, thermodynamic from solid, micellar layer",22 µM
same,solubility at 24 h,"[1]; FeSSIF*-E, total sample (micellar + lipid layer), pH 6.5, thermodynamic from solid, total sample (micellar + lipid layer), FeSSIF*-E",39 µM
same,solubility at 24 h,"[1]; FeSSIF*-FM, micellar, pH 6.5, thermodynamic from solid",176 µM
same,solubility at 24 h,"[1]; FeSSIF*-FMT, micellar layer of the supernatant, pH 6.5, thermodynamic from solid, micellar layer",161 µM
same,solubility at 24 h,"[1]; FeSSIF*-FMT, total sample (micellar + lipid layer), pH 6.5, thermodynamic from solid, total sample (micellar + lipid layer), FeSSIF*-FMT",199 µM
same,solubility at 24 h,"[1]; FeSSIF*-FMTh, micellar layer of the supernatant, pH 6.5, thermodynamic from solid, micellar layer",158 µM
same,solubility at 24 h,"[1]; FeSSIF*-FMTh, total sample (micellar + lipid layer), pH 6.5, thermodynamic from solid, total sample (micellar + lipid layer), FeSSIF*-FMTh",221 µM
same,solubility at 24 h,"[1]; FeSSIF*-Th, micellar layer of the supernatant, pH 6.5, thermodynamic from solid, micellar layer",31 µM
same,solubility at 24 h,"[1]; FeSSIF*-Th, total sample (micellar + lipid layer), pH 6.5, thermodynamic from solid, total sample (micellar + lipid layer), FeSSIF*-Th",50 µM
same,Log P,"[2]; quoted in the discussion of solubility, no reference given",3.97
same,Increase of solubility in FeSSIF*-FM compared to FeSSIF*,[3],5 fold
same,Permeability (Papp) in FaSSIF,"[4]; FaSSIF, 10 μM donor, compared to Papp values of 14 compounds of ref 13",low permeability
same,Lowering of permeability in FeSSIF* compared to FaSSIF,[4]; FeSSIF* vs FaSSIF,2.6 fold
same,Change of passive permeability with FFA and MG,[4]; [10],significant decrease
same,Effect of addition of TG to FeSSIF* on Papp,[4]; FeSSIF*-Th and FeSSIF*-E vs FeSSIF*,did not have an effect
same,"Apparent solubility, micellar",[5],12.7 (±4.2) ^1 µM
CC(=O)O[C@H]1CC[C@@]2(C)C(=CC[C@@H]3[C@@H]2CC[C@]2(C)C(c4cccnc4)=CC[C@@H]32)C1 [abiraterone acetate],Time to almost full conversion to abiraterone,"[6]; FaSSIF and FeSSIF*, 150 µM, 37 °C",≤ 30 min
same,Conversion in media containing lipid degradation products,[6]; [10],very limited
same,Degradation in media with undigested TG,[6]; FeSSIF*-Th and FeSSIF*-E,slower degradation
same,Excretion of the oral dose,[7],largely excreted in the faeces
same,Permeation across the cellulose membrane,[8],too low
same,Log P,[2],5.12
same,Increase of concentration in the total sample in FeSSIF*-FMTh compared to FeSSIF*-FMT,[3],2 fold
same,Increase of solubility in FeSSIF*-FM compared to FeSSIF*,[3],14 fold
same,"Apparent solubility, micellar",[5],64.6 (±5.2) ^1 µM
same,solubility at 24 h,"physchem; pH 6.5, fessif, thermodynamic from solid",148 µM
same,solubility at 24 h,"physchem; pH 6.5, thermodynamic from solid",2110 µM
same,Degradation in FeSSIF* compared to FeSSIF*-E,porcine pancreatin,degraded faster
